According to patent publication US12201684B2, “Compositions for stimulation of mammalian innate immune resistance to pathogens” (priority 2009, dated 2025):

Legend:
[1] = test system: neutrophils and macrophages in BAL fluid; assay: Bronchoalveolar lavage fluid leukocyte counts after aerosolized TLR ligands; assay type: in vivo, mice
[2] = test system: P. aeruginosa strain PA103; assay: In vivo inhalational P. aeruginosa challenge, survival; settings: wild type mice; aerosolized treatment 24 h prior to challenge
[3] = cited from earlier work

Compound: poly(I:C)
- influx of macrophages on BAL ([1]; 24 h after treatment): significant influx

Compound: monophosphoryl lipid A-synthetic [MPLA]
- protection against lethal P. aeruginosa pneumonia (survival) [2]: non-significant trend towards increased mortality

Compound: CCC(=O)O[C@]1(C(=O)SCF)[C@H](C)C[C@H]2[C@@H]3C[C@H](F)C4=CC(=O)C=C[C@]4(C)[C@@]3(F)[C@@H](O)C[C@@]21C [Fluticasone propionate, S-(fluromethyl)6α,9-difluoro-11β-17-dihydroxy-16α-methyl-3-oxoandrosta-1,4-diene-17β-carbothioate, 17-propionate]
- solubility in dimethyl sulfoxide and dimethylformamide [3]: freely soluble
- solubility in methanol and 95% ethanol [3]: slightly soluble
- solubility in water [3]: practically insoluble

Compound: CC(C)Cn1cnc2c(N)nc3ccccc3c21 [imiquimod, 1-(2-methylpropyl)-1H-imidazo[4,5-c]quinolin-4-amine]
- protection against lethal P. aeruginosa pneumonia (survival) [2]: trend towards protection
- neutrophil infiltration above a certain ligand concentration ([1]; BAL 24 h after treatment, highest concentrations tested): reduction in neutrophil infiltration
